Source: patent publication US10577341B1, “Beraprost-314d monohydrate crystals and methods for preparation thereof” (CHIROGATE INTERNATIONAL INC., priority 2018, dated 2020)

Tests used:
[1] = Crystalline form transformation of Beraprost-314d monohydrate Form A to Form B, followed by XRPD after isothermal standing; assay type: physicochemical; conditions: for XRPD pattern after heating (crystalline form): 24 hours
Description: X-ray Powder Diffraction (XRPD) Analysis: The XRPD patterns were collected on a Bruker D2 PHASER diffractometer with fixed divergence slits and 1D LYNXEYE detector. The samples (ca. 100 mg) were placed flat on a sample holder. The prepared samples were analyzed over a 2θ range from 5° to 50° with step size of 0.02 degrees and step time of 1 second using CuKα radiation at a power of 10 mA and 30 kV The CuKβ radiation was removed by a divergent beam nickel filter,
The critical temperature (T*). of crystalline form transformation of Beraprost-314d monohydrate Form A and Form B was determined. Crystalline Beraprost-314d monohydrate Form A (0.10 g, from Example 3) was placed in glass vials, and heated to 25° C., 27° C., 29° C., 31° C., 33° C., and 35° C. and isothermal stood for 24 hours.

[2] = Stability of anhydrous form versus monohydrate form of Beraprost-314d; assay and total impurities by HPLC after storage at 40° C.; assay type: physicochemical; conditions: for Assay / Total Impurities: 40° C./60% RH, HPLC
Description: The Beraprost-314d monohydrate is stable at room temperature. For example, the formation of dimer and/or unwanted esterification byproducts by the presence of hydrates can be avoided. […] The assay and total impurities of Beraprost-314d monohydrate and anhydrous Beraprost-314d were measured by HPLC after treatment at 40° C., as shown in Table 3.

[3] = 3 days, listed as Beraprost-314d monohydrate, monohydrate

| Compound | XRPD pattern after heating (crystalline form) ([1]; 25° C., 27° C. and 29° C.) | XRPD pattern after heating (crystalline form) ([1]; 31° C., 33° C. and 35° C.) | Critical temperature (T*) of crystalline form transformation from Form A to Form B ([1]; isothermal standing for 24 hours, XRPD) | Stability compared with the anhydrous form ([2]; 40° C. for 3 days) | Assay ([2]; 1 day) [%] | Total Impurities ([2]; 1 day) [%] | Assay ([2]; 2 days) [%] | Total Impurities ([2]; 2 days) [%] | Assay [2, 3] | Total Impurities [2, 3] [%] | Assay ([2]; 3 days, monohydrate) [%] | Total Impurities ([2]; 3 days, monohydrate) [%] | Assay ([2]; 3 days) [%] | Total Impurities ([2]; 3 days) [%] |
| --- | --- | --- | --- | --- | --- | --- | --- | --- | --- | --- | --- | --- | --- | --- |
| CC#CC[C@H](C)[C@H](O)/C=C/[C@@H]1[C@H]2c3cccc(CCCC(=O)O)c3O[C@H]2C[C@H]1O.O [Beraprost-314d monohydrate] | remain Form A without any Form B feature peaks | an intermediate state containing both Form A and Form B | about 30±5 °C | – | – | – | – | – | – | – | – | – | – | – |
| CC#CC[C@H](C)[C@H](O)/C=C/[C@@H]1[C@H]2c3cccc(CCCC(=O)O)c3O[C@H]2C[C@H]1O.O [Beraprost-314d Monohydrate, Beraprost-314d monohydrate] | – | – | – | more stable than the anhydrous Beraprost-314d | 99.89 | 0.17 | 99.77 | 0.25 | no apparent decrease | 0.33 | 99.69 | 0.33 | – | – |
| CC#CC[C@H](C)[C@H](O)/C=C/[C@@H]1[C@H]2c3cccc(CCCC(=O)O)c3O[C@H]2C[C@H]1O [Anhydrous Beraprost-314d, Beraprost-314d] | – | – | – | – | 99.30 | 0.84 | 99.01 | – | – | – | – | – | 98.95 | 1.19 |
